Assay [1] relates to E. coli. Description: microbe, parasite or virus in culture. As for the experimental part: (§1) Monodoncin was tested for its antibacterial activities against various Gram (−) bacteria, including E. coli, Vibrio harveyi, Vibrio alginolyticus, and Salmonella cholesaesuis, various Gram (+) bacteria, such as Aerococcus viridian, and filamentous fungi, such as Fusarium pisi.
(§2) The bacteria were cultured under conventional methods. For example, E. coli strain was cultured in LB, 37° C. The marine microorganisms that are pathogenic for shrimp, such as Vibrio harveyi and Vibrio alginolyticus, were cultured in trypticase soy broth/agar (1.5% NaCl), 25° C.

Assay [2] relates to Vibrio alginolyticus. Description: microbe, parasite or virus in culture. How it is done:
as §1, §2

The subject of assay [3] is Vibrio harveyi. The assay is described as follows: microbe, parasite or virus in culture. As for the experimental part: as §1, §2
The subject of assay [4] is Aerococcus viridian. Description: Bacteriostatic (MIC) and bactericidal (MBC) analysis against Aerococcus viridian. In kind it is cell-based. How it is done: as §1
The test system of assay [5] is Fusarium pisi. The assay is described as follows: MIC and MBC analysis against the filamentous fungus Fusarium pisi. It counts as cell-based. How it is done:
as §1

Assay [6] concerns Fusarium oxysporum. Description: MIC and MBC analysis against the filamentous fungus Fusarium oxysporum. In kind it is cell-based.
For assay [7], the system named is Salmonella choleraesuis Strand 74.
Protocol: (§3) The minimal inhibitory concentration (MIC) and minimal bactericidal concentration (MBC) were obtained to determine bacteriostatic and bactericidal activities, respectively, for each strain of the bacteria listed above. […] The lowest concentration which inhibited bacterial growth was deemed the MIC. The MBC was determined by spreading 100 μl from each tube of the MIC on an LB or TSA plate and incubating overnight.
Assay [8] concerns Salmonella choleraesuis Strand 75.
Protocol: as §3
The test system of assay [9] is Vibrio harveyi. Description: Mortality of tiger shrimp after Vibrio harveyi challenge (FIG. 5). It counts as in vivo, Penaeus monodon. How it is done:
(-⋄-): PBS control (negative control); (-▪-): Vibrio harveyi challenge (positive control); (-▴-): cecropin+Vibrio harveyi (non-monodoncin treatment group); (-●-): monodoncin+Vibrio harveyi (monodoncin treatment group).
Vibrio harveyi is a gram-negative marine bacterium that is in the natural living environment of the tiger shrimp. A suspension of the microorganism […] containing 10^5 cells was used for each tiger shrimp. The suspension was injected into the shrimp abdominal muscle. Hemocytes were collected as Example 1 at different times (from 0 to 72 hours) post-injection. Unchallenged animals were used as controls.

Assay [10] relates to E. coli. Description: SEM analysis of interaction of monodoncin with E. coli. Particulars: monodoncin 10 μM, 12 hrs of treatment. In kind it is cell-based, Escherichia coli. As for the experimental part:
Monodoncin at […] was used to treat E. Coli and Vibrios, and the pathogens prior to and after the treatment were monitored under Scanning Electron Microscope (SEM) and Atomic Force Microscope (AFM).
Scanning electron microscopy (SEM) was conducted by incubating […] of E. coli (109 C.F.U./ml) with or without 50 μl monodoncin (10000 μM) at 37° C. for 1 h, 3 h, 6 h, and 12 h. Three milliliters of each of the bacterial suspensions (at various time frames) were fixed by adding 1 ml of 6% glutaraldehyde in 0.1 M sodium cacodylate trihydrate buffer (pH 6.8). After fixation for 1 h at […], the bacterial suspensions were pelleted, the used fixative was removed, 2 ml of the new fixative were added, and the bacteria were incubated for 5 min at […] Two additional 5-min fixations were conducted, followed by addition of 2 ml of 1% osmium tetroxide in 0.1 M cacodylate buffer, and the fixation was allowed to proceed for 30 min at […] The osmium tetroxide was removed, and the bacterial suspensions were washed in 2 ml of 0.1 M cacodylate buffer. […] The SEM mounts were then sputter coated with gold (Edwards S150A sputter coater; Edwards High Vacuum, Crawley, West Sussex, England) and analyzed on a Hitachi H300-3010 scanning image accessory electron microscope.

This note sets out measurements from patent US7670836B2, “Antimicrobial peptide isolated from Penaeus monodon” (priority 2003, dated 2010).

Values after ≈ are worked out from the molar mass of the structure shown. Where two headings read alike, the source gives them in different places. No end group written: not given here.

As for `CN(C)[C@@H]1C(O)=C(C(N)=O)C(=O)[C@@]2(O)C(O)=C3C(=O)c4c(O)cccc4[C@@](C)(O)[C@H]3C[C@@H]12` [Tetracycline, tetracycline], the MBC in assay [1] (Escherichia coli) is 403 µM (≈ 179 µg/mL); in assay [2] (Vibrio alginolyticus), over 202 µM; in assay [3] (Vibrio harveyi) it was 403 µM (≈ 179 µg/mL); in [4], 300 µM (≈ 133 µg/mL); in [5] (Fusarium vanettenii), over 500 µM; in [6], 500 µM (≈ 222 µg/mL). Further, the MIC is 25.2 µM (≈ 11.2 µg/mL) in [2] (Vibrio alginolyticus); 6.3 µM (≈ 2.8 µg/mL) in assay [3] (Vibrio harveyi); 30 µM (≈ 13.3 µg/mL) in assay [4]; 300 µM (≈ 133 µg/mL) in assay [5] (Fusarium vanettenii); 500 µM (≈ 222 µg/mL) in [6].
With `CC1(C)S[C@@H]2[C@H](NC(=O)[C@H](N)c3ccc(O)cc3)C(=O)N2[C@H]1C(=O)O` [Amoxicillin, amoxicillin], the MIC in [7] (Strand 74, amoxicillin alone) is over 64 µg; in assay [8] (Strand 75, amoxicillin alone), over 64 µg.
magainins: the MBC in [1] (E. coli) was found to be 70 µM; in [2] (Vibrio alginolyticus) it was 300 µM; in assay [3] (Vibrio harveyi), 30 µM; in assay [4], 5 µM; in assay [5] it was 1 µM; in assay [6] it was 1 µM. Besides, the MIC in assay [1] (E. coli) was 40 µM; in [2] (Vibrio alginolyticus), 150 µM; in assay [3] (Vibrio harveyi), 30 µM; in assay [4] it was 1 µM; in [5], 1 µM; in assay [6] it was 1 µM.
On to “GWGSFFKKAAHVGKHVGKAALTHYL-NH2 (C-terminus assumed) [Pleurocidin, pleurocidin]”, for which the MBC in assay [1] is 500 µM; in [2], over 500 µM; in assay [3] it was 200 µM. The results for the MIC in assay [1], in [2] and in assay [3] were 450 µM, 500 µM and 200 µM, respectively.
As for “QGYQGGYTRPFPRPPYGGGYHPVPVCTSCHRLSPLQARACCRQLGRCCDAKQTYG (cysteines drawn unpaired) [Monodoncin]”, in assay [9], the “mortality rate relative to that in the untreated group” value worked out at 40% and the “reduction of tiger shrimp mortality” value is on record as “at least 40%”. Further, the “number of bacteria in the culture” value in [10] is on record as “significantly reduced”.
Take Cecropin: in [7] (Strand 74, peptide alone), the MBC was 31.2 µg/mL and the MIC worked out at 16.5 µg/mL. In [8] (Strand 75, peptide alone), the MBC was over 31.2 µg/mL and the MIC amounted to 31.2 µg/mL.
